Measurements as given in patent US20230339896A1, “HPK1 INHIBITORS AND USES THEREOF” (QILU REGOR THERAPEUTICS INC., priority 2020, published 2023).
In brackets after ≈: the same amount, converted by molar mass.

Assays:
MDCK = MDCK permeability assay; type: in vitro ADME; conditions: pH 7.4
Procedure: (§1) This assay is for generating screening data only, and to estimate the intestinal absorption potential of drug candidates. The study will be conducted in accordance with International Bioethical Standards “World MedicalAssociation Declaration of Helsinki.
(§2) Cell line: • ▪ MDCK (ATCC), or MDCK MDR1 (NKI).
(§3) Prepare donor buffer: • For A-to-B direction: • ✔ HBSS buffer with 0.3% DMSO and 5 µM Lucifer Yellow (LY): add 150 µL DMSO and 125 µL LY (2 mM) into 50 mL HBSS buffer (pH 7.4). • ✔ HBSS buffer with 0.1% DMSO and 5 µM Lucifer Yellow (LY): add 50 µL DMSO and 125 µL LY (2 mM) into 50 mL HBSS buffer (pH 7.4). • ✔ HBSS buffer with 5 µM Lucifer Yellow (LY): add 125 µL LY (2 mM) into 50 mL HBSS buffer (pH 7.4). • For B-to-A direction: • ✔ HBSS buffer with 0.3% DMSO: add 150 µL DMSO into 50 mL HBSS buffer (pH 7.4). • ✔ HBSS buffer with 0.1% DMSO: add 50 µL DMSO into 50 mL HBSS buffer (pH 7.4). • ✔ HBSS buffer without DMSO. • Prepare receiver buffer: • For A-to-B direction: Prepare HBSS buffer with 0.4% DMSO: add 200 µL DMSO into 50 mL HBSS buffer (pH 7.4) • For B-to-A direction: Prepare HBSS buffer with 0.4% DMSO and 5 µM LY: add 200 uL DMSO and 125 µL LY (2 mM) into 50 mL HBSS buffer (pH 7.4) • Controls: • Prepare 10 mM stock concentrations of compound in DMSO and Lucifer Yellow in assay buffer using the following formula: • (Actual Weight/Molecular Weight)/mL solvent =10 mM • Reference compound: Erythromycin, Metoprolol, Atenolol
(§4) MDCK assay plates are seeded 3-4 days prior to running the assay. 24-well plates are seeded at a cell density of 0.88 × 10^5/well in a 400 µL apical chamber volume (2.2×10^5 /mL) with a 25 mL volume of growth medium to the 24-well basal chamber. Assay plates are generally provided with a growth medium change 24 hours prior to the assay.
(§5) MDCK assay plates are rinsed with HBSS+ buffer prior to running the assay. After rinsing, fresh HBSS+ is added to the assay plate in a 400 µL apical chamber volume and a 0.8 mL HBSS+ basal chamber volume. Measure the electrical resistance across the monolayer using the Millicell ERS system ohm meter. (The cells will be used if TEER is higher than 100 ohm*cm^2).
(§6) Preparation of the cell plates: • Remove the buffer from the apical side and basolateral side. Add 600 µL of donor solution (for A-to-B) or 500 µL of receiver solution (for B-to-A) to the apical wells based on plate map. • A fresh basolateral plate is prepared by adding 800 µL of receiver solution (for A-to-B) or 900 µL of donor solution (B-to-A) to the well of a new 24-well plate. • Put the apical plate and basolateral plate into 37° C. incubator.
(§7) Preparation of analytical plate: • After 5 min, transfer 100 µL of samples from all donors (for both A-to-B and B-to-A) into appropriate wells of a sample plate for D0. And transfer 100 µL of samples from all apical chambers (the donor of A-to-B and receiver of B-to-A) into appropriate wells of a microplate for Lucifer Yellow D0 (D0 LY) • Lay the apical plate to the basolateral plate to start transport process. • At 90 min, separate the apical and basolateral plates and transfer 100 µL of samples from all donors (for both A-to-B and B-to-A) into appropriate wells of a new sample plate for D90, and transfer 200 µL of samples from all receivers into appropriate wells of a sample plate for R90. Transfer 100 µL of samples from all basolateral chambers (receiver of A-to-B and donor of B-to-A) into appropriate wells of a new microplate for Lucifer Yellow R90 (R90 LY). • Determine LY permeability by reading D0 LY and R90 LY at an excitation wavelength of 485 nm and an emission wavelength of 535 nm using a fluorescent plate reader. • Sample preparation: • For receiver solution: 60 µL of sample + 60 µL ACN with IS (200 ng/mL Osalmid) • For donor solution: 6 µL of sample + 54 µL 0.4% DMSO/HBSS + 60 µL ACN with IS (200 ng/mL Osalmid) […]

MDCK permeability assay = type: in vitro ADME; conditions: dog, MDCK, pH 7.4
Procedure: as §1, §2, §3, §4, §5, §6, §7

Kinetic solubility assay = type: physicochemical; conditions: pH 7.4, aqueous buffer, kinetic from dmso stock; phosphate buffer pH7.4, 1% DMSO, 1 hour at room temperature
Procedure: This protocol is designed to measure kinetic solubility of test articles in assay buffer. The study will be conducted in accordance with International Bioethical Standards “World Medical Association Declaration of Helsinki.
100 Phosphate Buffer, pH7.4
• 1) Prepare stock solutions for test compounds in DMSO at 10 mM concentration. Dilute the stock solutions into 100 mM phosphate buffer in triplicate in 1.5 ml Eppendorf tubes to a target concentration of 100 µM with a final DMSO concentration of 1%: • 2) 4 µL of 10 mM DMSO stock solution into 396 µL of assay buffer. • 3) Keep the sample tubes shaken (1000 rpm) for 1 hour at room temperature. • 4) Centrifuge sample tubes for 10 min at 12000 rpm (Eppendrof-5424, about 13500 g) to precipitate un-dissolved particles. • 5) Transfer the supernatants to new tubes with different dilutions (undiluted, 10-fold diluted, 100-fold diluted, or other fold diluted). • 6) Add 5 µL of working solution and diluted supernatants to 95 µL ACN (containing IS). Analyze the samples by LC-MS-MS against calibration curve.
A standard calibration curve is prepared in Methanol/H2O (1:1).

Row | MDCK Permeability (A-B) (×10-6 cm/s) (MDCK; A-B) | MDCK Permeability (B-A) (×10-6 cm/s) (MDCK; B-A) | Papp A→B at 90 min (MDCK permeability assay) [×10⁻⁶ cm/s] | Papp B→A at 90 min (MDCK permeability assay) [×10⁻⁶ cm/s] | solubility kinetic at 1 h (Kinetic solubility assay) [µM] | Structure (SMILES)
1 | 11.9 ×10-6 cm/s | 52.3 ×10-6 cm/s |  |  |  | CN1CCc2cc(F)c(Nc3ncc(Cl)c(N4C[C@](C)(CC(=O)O)c5ccccc54)n3)cc2C1 (single isomer, unassigned) [Example 5, (R)-2-[1-[5-chloro-2-[(6-fluoro-2-methyl-3,4-dihydro-1H-isoquinolin-7-yl)amino]pyrimidin-4-yl]-3-methyl-indolin-3-yl]acetic acid or (S)-2-[1-[5-chloro-2-[(6-fluoro-2-methyl-3,4-dihydro-1H-isoquinolin-7-yl)amino]pyrimidin-4-yl]-3-methyl-indolin-3-yl]acetic acid]
2 |  |  | 3.2 | 9.4 | 7.71 (≈ 3.59 µg/mL) | COc1cc2c(cc1Nc1ncc(Cl)c(N3CC(C(=O)O)c4ccccc43)n1)CN(C)CC2 (centres unmarked) [Compound 7, reference compound]
3 |  |  | 4.5 | 38.5 | 62.1 (≈ 29.8 µg/mL) | COc1cc2c(cc1Nc1ncc(Cl)c(N3CC(CC(=O)O)c4ccccc43)n1)CN(C)CC2 (centres unmarked) [Compound 8, reference compound]
4 |  |  | 2.6 | 58.9 | 56.2 (≈ 28.8 µg/mL) | COc1cc2c(cc1Nc1ncc(Cl)c(N3CC(C)(CC(=O)O)c4ccc(F)cc43)n1)CN(C)CC2 (centres unmarked) [Compound 10, reference compound]
5 |  |  | 2.2 | 47.8 | 1.5 (≈ 0.741 µg/mL) | COc1cc2c(cc1Nc1ncc(Cl)c(N3CC(C)(CC(=O)O)c4ccccc43)n1)CN(C)CC2 (centres unmarked) [Example 1, 2-(1-(5-chloro-2-((6-methoxy-2-methyl-1,2,3,4-tetrahydroisoquinolin-7-yl)amino)pyrimidin-4-yl)-3-methylindolin-3-yl)acetic acid]
6 |  |  | 7.7 | 41.1 | 46.7 (≈ 22.5 µg/mL) | CN1CCc2cc(F)c(Nc3ncc(Cl)c(N4CC(C)(CC(=O)O)c5ccccc54)n3)cc2C1 (centres unmarked) [Example 4, 2-(1-(5-chloro-2-((6-fluoro-2-methyl-1,2,3,4-tetrahydroisoquinolin-7-yl)amino)pyrimidin-4-yl)-3-methylindolin-3-yl)acetic acid]
